The results in this text go back to patent EP2209388B1, “SACRIFICIAL ANTIOXIDANT” (Borregaard AS, priority 2007, dated 2009).

Data set [1] in a line: Peroxynitrite test (total antioxidant effect), antioxidant screening. The class given is biochemical. Conditions: comparison in words of the scores of table 3. The text has this: To assess and verify the effect of lignosulfonate as antioxidant several lignosulfonic samples have been tested in different antioxidant screenings. Table 3. Samples tested for antioxidant effect. Five types of lignosulfonates were investigated; sodium lignosulfonate, a desulfonated oxidized lignosulfonate, and three fractions of a sodium lignosulfonate; low, medium and high molecular weight. […] The desulfonated oxidized lignosulfonate had the best antioxidant effect compared to the sodium lignosulfonate samples. […] As a comparison the synthetic antioxidant Ethoxyquin, gave the highest score in the test.

Data set [2] can be described thus: Autoxidation of rosmarinic acid with oxygen at 65°C with/without lignosulfonate (Example 3), reversed-phase HPLC-UV 280 nm. The class given is physicochemical. More on the design: unit not given here. The text has this: The combined effect of lignosulfonate was in addition shown in autoxidation experiments using two different lignosulfonates and rosmarinic acid as a representative for a different antioxidant. […] In parallel the same concentration of antioxidant, rosmarinic acid 1%, was supplemented with lignosulfonate. The tested lignins were a sodium lignosulfonate (LS 1) and a calcium lignosulfonate (LS 2), both added in the same amounts based on dry content (17%). Samples were withdrawn daily and the amount of remaining antioxidant was chromatographically quantified. Reversed-phase HPLC with UV-detection at 280 nm was the method of choice for monitoring the positive effect of LS.

For `Cc1cc(C(C)(C)C)c(O)c(C(C)(C)C)c1` [BHT, 2,6-di-tert-butyl-4-methylphenol], the antioxidant effect result in data set [1] is reported as “scored lowest”.
In the case of `CCOc1ccc2c(c1)C(C)=CC(C)(C)N2` [Ethoxyquin, 1,2-dihydro-6-etoxy-2,2,4-trimetylquinoline], the antioxidant effect result in data set [1] is “highest score”.
Take `O=C(/C=C/c1ccc(O)c(O)c1)O[C@H](Cc1ccc(O)c(O)c1)C(=O)O` [Rosmarinic acid]: the “Autoxidation of rosmarinic acid (amount of remaining antioxidant)” value in data set [2] (Day 0, rosmarinic acid 1%, lignosulfonate 17% dry content) is 100; in data set [2] (Day 1), 72; in data set [2] (Day 2), 45; in data set [2] (Day 3) it was 11; in data set [2] (Day 4), 2; in data set [2] (Day 4, listed as rosmarinic acid), “completely degraded”.
